What was measured:
HER2 = biological target: T1, HER2 (Homo sapiens, UniProt P04626); test: Inhibition of HER2 Phosphorylation in Calu3 Tumor Cell Line; assay type: cell-based; conditions: Calu3 cells; for percentage of inhibition of HER2 phosphorylation compared with the reference compound: comparison with reference compound (Example 4, p. 88, WO 01/77107); for inhibition at 1 µM: Calu-3, read-out: Percent inhibition of HER2-phosphorylation
T1 construct: endogenous in cells; host or cells: Calu3 tumor cell line
T1 sequence (P04626 23-1255): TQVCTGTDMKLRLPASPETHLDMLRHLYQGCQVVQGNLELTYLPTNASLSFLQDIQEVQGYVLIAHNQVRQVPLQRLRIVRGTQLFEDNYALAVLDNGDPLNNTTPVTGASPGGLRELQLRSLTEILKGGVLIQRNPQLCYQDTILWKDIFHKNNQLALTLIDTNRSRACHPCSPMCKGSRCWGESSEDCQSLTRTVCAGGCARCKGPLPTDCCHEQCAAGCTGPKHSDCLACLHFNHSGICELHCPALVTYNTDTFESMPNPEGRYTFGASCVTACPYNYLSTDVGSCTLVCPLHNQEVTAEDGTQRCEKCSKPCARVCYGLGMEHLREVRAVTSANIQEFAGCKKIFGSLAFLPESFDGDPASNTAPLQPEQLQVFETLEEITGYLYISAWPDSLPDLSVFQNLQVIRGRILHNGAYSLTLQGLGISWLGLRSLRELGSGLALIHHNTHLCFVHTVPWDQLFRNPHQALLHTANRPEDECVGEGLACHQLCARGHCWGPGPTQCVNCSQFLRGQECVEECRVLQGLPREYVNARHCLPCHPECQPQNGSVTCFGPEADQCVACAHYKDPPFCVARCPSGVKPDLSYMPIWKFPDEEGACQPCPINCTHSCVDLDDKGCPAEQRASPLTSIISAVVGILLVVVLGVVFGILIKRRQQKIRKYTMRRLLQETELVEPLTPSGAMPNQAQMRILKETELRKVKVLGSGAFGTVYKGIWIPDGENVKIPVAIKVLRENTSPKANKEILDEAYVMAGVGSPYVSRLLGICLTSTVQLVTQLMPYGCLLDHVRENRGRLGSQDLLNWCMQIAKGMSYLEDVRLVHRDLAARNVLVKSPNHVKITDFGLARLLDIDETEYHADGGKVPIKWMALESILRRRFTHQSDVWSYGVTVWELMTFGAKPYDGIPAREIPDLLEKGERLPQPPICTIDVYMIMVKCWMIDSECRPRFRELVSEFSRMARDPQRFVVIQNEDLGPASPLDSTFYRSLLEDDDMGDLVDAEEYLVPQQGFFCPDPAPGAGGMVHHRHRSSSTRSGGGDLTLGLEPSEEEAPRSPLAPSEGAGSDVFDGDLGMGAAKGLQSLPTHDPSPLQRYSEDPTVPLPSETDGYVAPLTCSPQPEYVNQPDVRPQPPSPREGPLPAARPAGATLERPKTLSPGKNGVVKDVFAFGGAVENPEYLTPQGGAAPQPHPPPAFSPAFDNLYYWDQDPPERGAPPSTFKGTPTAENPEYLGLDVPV
Protocol: Inhibition of HER2 Phosphorylation in Calu3 Tumor Cell Line
2×10^5 Calu3 cells per well were plated in a 12-well plate. After 4 days cells were starved for 16 h in DMEM (Dulbecco's Modified Eagle Medium)/0.5% FCS/1% glutamine. During this time cells were incubated with […] of a compound according to this invention. Afterwards cells were lysed in lyses buffer containing 1% Triton, 10% glycerol, 1 mM EGTA, 1.5 mM MgCl2, 150 mM NaCl, 50 mM Hepes pH 7.5, 1 mM PMSF, 10 μg/mL aprotinin and […] orthovanadate. Cell lysates were analyzed on a SDS PAGE and after transfer to a nitrocellulose membrane detected with a rabbit antibody specifically recognizing the pY 1248 in HER2 (Cell Signaling). After incubation with an anti rabbit antibody coupled to POD (Peroxidase from Biorad, Munich, Germany) signals were detected by chemiluminescence (ECL, Amersham). Inhibition of HER2 phosphorylation is calculated as percentage of the DMSO treated control. This percentage is calculated according to the following formula: Inhibition in %=100−(Phosphorylated-HER2-Signal of Test Sample*100/Phosphorylated-HER2-Signal DMSO-control).

[1] = compound concentration 1 μM, 16 h incubation, pY 1248 in HER2, percentage of the DMSO treated control

| inhibition at 1 µM (HER2; [1]) [%] | Percent inhibition of HER2-phosphorylation (HER2; [1]) [%] | melting point [°C] | Compound | percentage of inhibition of HER2 phosphorylation compared with the reference compound (HER2) |
| --- | --- | --- | --- | --- |
| 86.1 |  |  | FS(F)(F)(F)(F)c1ccc(/C=C/c2nc(COc3ccc(CCCCn4ccnn4)cc3)co2)cc1 [example 4, 1-[4-(4-{2-[(E)-2-(-4-Pentafluorosulfanyl-phenyl)-vinyl]-oxazol-4-ylmethoxy}-phenyl)-butyl]-1H-[1,2,3]triazole] | higher percentage of inhibition of phosphorylation |
|  | 52.9 |  | FS(F)(F)(F)(F)c1ccc(C=Cc2nc(COc3ccc(COCCn4ccnn4)cc3)co2)cc1 [example 9, 1-[2-(4-{2-[-4-(Pentafluorosulfanyl-phenyl)-vinyl]-oxazol-4-ylmethoxy}-benzyloxy)-ethyl]-1H-[1,2,3]-triazole] | higher percentage of inhibition of phosphorylation |
| 59.7 |  |  | O=S(=O)(CCn1ccnn1)Cc1ccc(OCc2coc(/C=C/c3ccc(S(F)(F)(F)(F)F)cc3)n2)cc1 [example 11, 1-[2-(4-{2-[(E)-2-(4-Pentafluorosulfanyl-phenyl)-vinyl]-oxazol-4-ylmethoxy}-phenylmethanesulfonyl)-ethyl]-1H-[1,2,3]triazole] | higher percentage of inhibition of phosphorylation |
| 71.7 |  | 170 to 172 | O=S(=O)(NCCn1ccnn1)c1ccc(OCc2coc(C=Cc3ccc(S(F)(F)(F)(F)F)cc3)n2)cc1 [example 14, N-(2-[1,2,3]Triazol-1-yl-ethyl)-4-{2-[2-(4-pentafluorosulfanyl-phenyl)-vinyl]-oxazol-4-ylmethoxy}-benzenesulfonamide] | higher percentage of inhibition of phosphorylation |
| 97.5 |  |  | FS(F)(F)(F)(F)c1ccc(C=Cc2nc(COc3ccc(OCCCn4ccnn4)cc3)co2)cc1 [example 15, 1-[3-(4-{2-[2-(4-Pentafluorosulfanyl-phenyl)-vinyl]-oxazol-4-ylmethoxy}-phenoxy)-propyl]-1H-[1,2,3]triazole] | higher percentage of inhibition of phosphorylation |

Continued, compound first:

| Compound | inhibition at 1 µM (HER2; [1]) [%] | Percent inhibition of HER2-phosphorylation (HER2; [1]) [%] | melting point [°C] | percentage of inhibition of HER2 phosphorylation compared with the reference compound (HER2) |
| --- | --- | --- | --- | --- |
| FS(F)(F)(F)(F)c1ccc(C=Cc2nc(COc3ccc(CCCCn4ccnc4)cc3)co2)cc1 [example 1, 4-[4-(4-Imidazol-1-yl-butyl)-phenoxymethyl]-2-[2-(4-pentafluorosulfanyl-phenyl)-vinyl]-oxazole] | 87.5 |  |  | higher percentage of inhibition of phosphorylation |
| FS(F)(F)(F)(F)c1ccc(C=Cc2nc(COc3ccc(C=CCCn4ccnn4)cc3)co2)cc1 [example 12, 1-[4-(4-{2-[2-(4-Pentafluorosulfanyl-phenyl)-vinyl]-oxazol-4-ylmethoxy}-phenyl)-but-3-enyl]-1H-[1,2,3]triazole] | 68.8 |  |  | higher percentage of inhibition of phosphorylation |
| FS(F)(F)(F)(F)c1ccc(C=Cc2nc(CNc3ccc(CCCCn4ccnn4)cc3)co2)cc1 [example 16, [4-(4-[1,2,3]Triazol-1-yl-butyl)-phenyl]-{2-[2-(4-pentafluorosulfanyl-phenyl)-vinyl]-oxazol-4-ylmethyl}-amine] | 91.9 |  |  | higher percentage of inhibition of phosphorylation |

Reference: patent US7235574B2, “Pentafluorosulfanyl compounds” (Hoffmann-La Roche Inc., priority 2004, dated 2007)
